# Literature values, collected in patent US9532941B2, “Method for treatment of hair loss with a combination of natural ingredients” (priority 2011, dated 2017).
# Columns and labels:
# [1] = system: human hair follicles
# [2] = system: human 5-α-reductase; conditions: cell free assay in vitro
# [3] = system: human hair; conditions: in vitro exposure; cell proliferation markers
compound,measurement,setting,value
Cn1c(=O)c2c(ncn2C)n(C)c1=O [caffeine],counteraction of testosterone-induced growth suppression,"[1]; caffeine 0.001% and 0.005%, 5 mg/ml testosterone",counteracted
same,"hair follicle growth, caffeine alone",[1]; caffeine alone,significant stimulation of hair follicle growth
C[C@]12CC[C@H]3[C@@H](CCC4=CC(=O)CC[C@@]43C)[C@@H]1CC[C@@H]2O [testosterone],growth of hair follicles,[1]; hair follicles treated with 5 mg/ml testosterone,Significant growth suppression
epigallocatechin-3-gallate [EGCG],"inhibition of human 5-α-reductase, cell free",[2],potently inhibited
same,human hair growth,[3],stimulates human hair growth
